Results on seven compounds are retold here after patent US8835644B2, “Broad spectrum benzothiophene-nitrothiazolide and other antimicrobials” (University of Virginia Patent Foundation, priority 2009, dated 2014).

In brackets after ≈: the same amount, converted by molar mass. Where a name gives a salt, the structure may show the parent alone. Read-outs that look alike come from different tables or passages of the source. Marks after values point to notes of the source that are not given here.

In one assay the test system is S. epidermidis. As to the kind of experiment: MIC testing by broth dilution, S. epidermidis plank. The format is cell-based, Staphylococcus epidermidis. The method, boiled down: (§1)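 Compounds were diluted serially from 32 μg/ml to 0.06 in medium holding a standard inoculum, then visually scored at 24 h, and the lowest well without growth was recorded. Media were LB for E. coli, Trypticase Soy for S. epidermidis and Brain Heart Infusion for C. jejuni. C. difficile zones were measured anaerobically relative to NTZ.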
Background: Broth dilution looks for growth in wells or tubes with falling amounts of substance.

For assay [1], the system named is PFOR (pyruvate ferredoxin oxidoreductase). The assay can be described thus: Direct PFOR enzyme assay. The class given is biochemical. On the procedure:
(§2) Representative compounds of the invention were tested in a series of assays against a series of organisms as described above. […] The organisms tested include, C. difficile, H. pylori, C. jejuni, MRSA, S. epidermidis, and E. coli. S. epidermidis and E. coli were tested in the plank and biofilm assay. A disk diffusion assay was also used for C. difficile. Direct PFOR enzyme assays were also performed. All analogues and derivatives were not tested on every organism in every type of assay (the “-” in each table means that it was not tested).

The test system of the next assay is MRSA. As to the kind of experiment: MIC testing by broth dilution, MRSA. The format is cell-based, Staphylococcus aureus. The method, boiled down:
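Values are broth-dilution MICs, defined as the well showing no growth on visual reading after 24 h; the tested range was 32 to 0.06 μg/ml, in organism-specific media (LB, Trypticase Soy, Brain Heart Infusion). The C. difficile entries come instead from anaerobic Kirby-Bauer disk zones, normalised to NTZ.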

A further assay concerns H. pylori. As to the kind of experiment: MIC testing by broth dilution, H. pylori. The class given is cell-based, Helicobacter pylori. The method in brief:
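Broth dilution MIC determination against H. pylori: a standard inoculum in 100 microliters of Brain Heart Infusion medium was placed in 96 well microplates. Test compounds began at 32 μg/ml in 200 microliters in well one and were serially diluted over a 32 to 0.06 range. After 24 h, plates were scored by eye and the first well without growth was recorded as the MIC.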

A further assay has as its system C. jejuni. The assay can be described thus: MIC testing by broth dilution, C. jejuni. The class given is cell-based, Campylobacter jejuni. The method, boiled down:
as §1

In a further assay the test system is C. difficile. The assay can be described thus: Disk diffusion (Kirby Bower), C. difficile. The format is cell-based, Clostridium difficile. The note with it: for Disk Diffusion (%) C. difficile: zone of inhibited growth as relative ratio to the zone for NTZ. The method, boiled down:
as §1

For a further assay, the system named is E. coli. As to the kind of experiment: MIC testing by broth dilution, E. coli plank. The format is cell-based, Escherichia coli. The method in brief: as §1
The subject of the next assay is E. coli biofilm. As to the kind of experiment: E. coli biofilm assay (activity tables). The format is cell-based, Escherichia coli. The note with it: Escherichia coli; biofilm; Furan analogues table; read-out: MIC E. coli Biofilm. The method, boiled down:
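After 24 h static culture at 37 °C in wells containing NTZ, strain 042 (1:100 inoculum) biofilm was quantified by 0.5% crystal violet absorbance at 570 nm. Planktonic growth was taken from turbidity or LB plate counts as cfu/ml; all runs triplicate, reported as mean and SD.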

In the next assay the test system is S. epidermidis biofilm. The assay can be described thus: S. epidermidis biofilm assay (activity tables). The format is cell-based, Staphylococcus epidermidis. The note with it: Furan analogues table. As for the experimental part: Staphylococcal strains were cultured overnight in TSB at 37° C. with shaking, diluted in fresh medium to an OD600 of 0.01 and 200 W was dispensed into sterile flat bottom polystyrene 96 well microtiter plates (Costar 3596, Corning Inc.). […] Each compound and dilution was tested in triplicate. The plates were incubated overnight at 37° C. in a humidified incubator, without shaking and both growth and biofilm accumulation were determined at 16 h.
Following recording of turbidities, the culture medium was aspirated and the wells were washed three times with distilled water, blotted on paper towels, and fixed with 75% ethanol for 10 minutes.
To visualize biofilm material, 0.5% crystal violet was added to each well and after 5 minutes was removed and the wells washed three times with distilled water. Plates were read using a microplate reader at a wavelength of 570 nm. The dye was then extracted by adding 200 W of 95% ethanol, and the absorbance was read again at 570 nm. All assays were performed in triplicate and the mean and standard deviation determined. […]
as §2

Setting [2] is: Helicobacter pylori, 24 h, read-out: MIC (μM) H. pylori.
Setting [3] is: Campylobacter jejuni, 24 h, read-out: MIC (μM) C. jejuni.
Where [4] appears, read: Escherichia coli, 24 h, read-out: MIC (μM) E. coli Plank.
[5] abbreviates: * biphasic initial inhibition followed by uninhibited rate, ** caused some precipitant in extract.
[6] abbreviates: planktonic, 2-amino-3,5-dinitrothiophene analogues table, read-out: MIC S. epidermidis Plank.
Where [7] appears, read: 2-amino-3,5-dinitrothiophene analogues table, read-out: MIC MRSA.
The mark [8] stands for this setting: 2-amino-3,5-dinitrothiophene analogues table, read-out: MIC H. pylori.
The mark [9] stands for this setting: 2-amino-3,5-dinitrothiophene analogues table, read-out: MIC C. jejuni.

As for `O=C(Nc1nc(Cl)c([N+](=O)[O-])s1)c1ccccc1` [VPC162087], the MIC in the assay with S. epidermidis (broth dilution, Trypticase Soy, 24 h, read-out: MIC (μM) S. epidermidis Plank) was 35.2 µM (≈ 9.99 µg/mL); with MRSA (broth dilution, Trypticase Soy, 24 h, read-out: MIC (μM) MRSA), 112.8 µM (≈ 32 µg/mL); with H. pylori (broth dilution, Brain Heart Infusion, 24 h, read-out: MIC (μM) H. pylori) it was 8.8 µM (≈ 2.5 µg/mL); in the assay on C. jejuni (broth dilution, Brain Heart Infusion, 24 h, read-out: MIC (μM) C. jejuni) it was 7.1 µM (≈ 2.01 µg/mL); in the assay on E. coli (broth dilution, LB medium, 24 h, read-out: MIC (μM) E. coli Plank) it was 112.8 µM (≈ 32 µg/mL). Moreover, the “PFOR inhibition relative to nitazoxanide (=100)” value in assay [1] is on record as 107%. Moreover, the “Disk Diffusion (%) C. difficile” value with C. difficile is listed as 66%.
For the compound `O=C(Nc1ncc([N+](=O)[O-])s1)c1ccc(Cl)c(C(F)(F)F)c1` [VPC16a1060], the “PFOR inhibition relative to nitazoxanide (=100)” value in [1] is reported as 63* %. Also, the MIC amounted to 2.8 µM (≈ 0.985 µg/mL) with H. pylori (setting [2]), 2.8 µM (≈ 0.985 µg/mL) with C. jejuni (setting [3]) and 91 µM (≈ 32 µg/mL) in the assay on E. coli (setting [4]). Moreover, in the assay with C. difficile, the “Disk Diffusion (%) C. difficile” value is recorded as 89%.
As to `NCCOc1ccccc1C(=O)Nc1sc([N+](=O)[O-])cc1[N+](=O)[O-]` [VPC16b2031, 2-(2-Aminoethoxy)-N-(3,5-dinitrothiophen-2-yl)benzamide], the MIC in the assay on S. epidermidis (Staphylococcus epidermidis, read-out: MIC S. epidermidis Plank) was found to be 25.7 µM (≈ 9.05 µg/mL); in the assay on MRSA (Staphylococcus aureus, MRSA, read-out: MIC MRSA), 82.3 µM (≈ 29 µg/mL); in the assay with H. pylori (Helicobacter pylori, read-out: MIC H. pylori), 1.9 µM (≈ 0.669 µg/mL); with C. jejuni (Campylobacter jejuni, read-out: MIC C. jejuni), 1.3 µM (≈ 0.458 µg/mL). Further, in assay [1] (setting [5]), the “PFOR inhibition relative to nitazoxanide (=100)” value is on record as 162%.
As for `NCCOc1ccsc1C(=O)Nc1ncc([N+](=O)[O-])s1` [VPC162125, 3-(2-Aminoethoxy)-N-(5-nitrothiazol-2-yl)thiophene-2-carboxamide hydrochloride], the MIC in the assay on S. epidermidis (Staphylococcus epidermidis, 24 h, read-out: MIC (μM) S. epidermidis Plank) is 91.2 µM; in the assay on MRSA (Staphylococcus aureus, MRSA, 24 h, read-out: MIC (μM) MRSA), 91.2 µM; in the assay with H. pylori (setting [2]), 0.7 µM; in the assay with C. jejuni (setting [3]) it was 11.4 µM; in the assay with E. coli (setting [4]) it was 91.2 µM. In addition, the “PFOR inhibition relative to nitazoxanide (=100)” value in [1] was determined as 137%.
With `O=C(Nc1sc([N+](=O)[O-])cc1[N+](=O)[O-])c1cccc(C(F)(F)F)c1Cl` [VPC16b2028], the MIC is 30.3 µM (≈ 12 µg/mL) in the assay on S. epidermidis (setting [6]), 30.3 µM (≈ 12 µg/mL) with MRSA (setting [7]), 0.8 µM (≈ 0.317 µg/mL) in the assay on H. pylori (setting [8]) and 1.9 µM (≈ 0.752 µg/mL) in the assay with C. jejuni (setting [9]). In addition, the “PFOR inhibition relative to nitazoxanide (=100)” value in [1] (setting [5]) is listed as 113%.
`O=C(Nc1ncc([N+](=O)[O-])s1)c1ccc(Br)o1` [VPC161281, 5-Bromo-N-(5-nitrothiazol-2-yl)furan-2-carboxamide]: the MIC amounted to 25.1 µM (≈ 7.98 µg/mL) in the assay with S. epidermidis (Staphylococcus epidermidis, planktonic, Furan analogues table, read-out: MIC S. epidermidis Plank); 0.4 µM (≈ 0.127 µg/mL) in the assay with E. coli biofilm; 6.3 µM (≈ 2 µg/mL) in the assay on MRSA (Staphylococcus aureus, MRSA, Furan analogues table, read-out: MIC MRSA); 1.6 µM (≈ 0.509 µg/mL) in the assay on H. pylori (Helicobacter pylori, Furan analogues table, read-out: MIC H. pylori); 12.6 µM (≈ 4.01 µg/mL) in the assay with C. jejuni (Campylobacter jejuni, Furan analogues table, read-out: MIC C. jejuni); 101 µM (≈ 32 µg/mL) with E. coli (Escherichia coli, planktonic, Furan analogues table, read-out: MIC E. coli Plank). The “MIC S. epidermidis Biofilm” value with S. epidermidis biofilm was 50.3 µM (≈ 16 µg/mL). Further, in the assay on C. difficile (Nitazoxanide = 100, Furan analogues table), the “Disk Diff (%) C. difficile” value is 92%.
For `O=C(Nc1sc([N+](=O)[O-])cc1[N+](=O)[O-])c1ccc(Br)o1` [VPC16b2023], the MIC was 88.4 µM (≈ 32 µg/mL) with S. epidermidis (setting [6]), 33.1 µM (≈ 12 µg/mL) in the assay with MRSA (setting [7]), 2.1 µM (≈ 0.76 µg/mL) with H. pylori (setting [8]) and 2.8 µM (≈ 1.01 µg/mL) with C. jejuni (setting [9]). In addition, the “PFOR inhibition relative to nitazoxanide (=100)” value in assay [1] (setting [5]) was 94** %.
